Experimental data published in patent US12528786B2, “Plasma kallikrein inhibitors” (Merck Sharp & Dohme LLC, priority 2020, dated 2026).

The molecules below were run against T1, Human plasma kallikrein (Homo sapiens, UniProt P03952) (assay: Kallikrein Assay (fluorogenic substrate hydrolysis, AFC release)). Conditions: purified Human plasma kallikrein 0.5 nM; substrate Acetyl-K—P—R-AFC 100 mM; 50 mM HEPES pH 7.4.
T1 construct: yields a heavy chain (371 amino acids) and a light chain (248 amino acids); purchased Enzyme Research Laboratories
T1 sequence (P03952 391-638 limits assumed): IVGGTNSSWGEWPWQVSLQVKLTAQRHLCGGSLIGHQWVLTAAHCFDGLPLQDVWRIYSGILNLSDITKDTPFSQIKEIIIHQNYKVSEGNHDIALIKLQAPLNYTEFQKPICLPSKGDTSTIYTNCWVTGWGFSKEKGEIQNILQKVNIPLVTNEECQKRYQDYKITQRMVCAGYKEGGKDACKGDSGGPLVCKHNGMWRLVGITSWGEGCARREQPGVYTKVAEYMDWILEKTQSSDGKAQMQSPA
T1 sequence (P03952 20-390 partner limits assumed): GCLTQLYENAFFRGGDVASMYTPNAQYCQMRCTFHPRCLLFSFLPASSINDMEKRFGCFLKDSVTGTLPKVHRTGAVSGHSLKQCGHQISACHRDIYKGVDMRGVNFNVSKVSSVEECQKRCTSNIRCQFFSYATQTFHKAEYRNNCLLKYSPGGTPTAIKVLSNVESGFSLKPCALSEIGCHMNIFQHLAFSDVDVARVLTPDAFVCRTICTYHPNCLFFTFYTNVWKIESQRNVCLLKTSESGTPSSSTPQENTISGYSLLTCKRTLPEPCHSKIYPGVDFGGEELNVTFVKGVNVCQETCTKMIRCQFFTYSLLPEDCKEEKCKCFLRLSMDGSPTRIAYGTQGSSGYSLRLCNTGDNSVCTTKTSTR
Format: biochemical
Method in brief: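 Enzyme–inhibitor equilibrated before substrate dilution to ≤0.2 Km; human plasma kallikrein at 0.5 nM final, Acetyl-K-P-R-AFC substrate, HEPES pH 7.4 buffer with NaCl, CaCl2, PEG 8000, at room temperature or 37° C. Linear-phase fluorescence rate gives percent inhibition, four-parameter logistic IC50, then Cheng-Prusoff Ki.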

SMILES | IC50 [nM]
Cc1c([C@H](C)n2cc(C(=O)NC34CCCC(c5cc(Cl)ccc5C#N)(C3)C4)nn2)cnc(N2C[C@H]3C[C@H]3C2=O)c1C [Example 150, N-(5-(5-chloro-2-cyanophenyl)bicyclo[3.1.1]heptan-1-yl)-1-((S)-1-(4,5-dimethyl-6-((1R,5S)-2-oxo-3-azabicyclo[3.1.0]hexan-3-yl)pyridin-3-yl)ethyl)-1H-1,2,3-triazole-4-carboxamide] | 5.8
Cc1ccc(C#N)c([C@H]2C[C@@H](NC(=O)c3cn(C(C)c4cnc(N5C[C@H]6C[C@H]6C5=O)c(C)c4C)nn3)C2)c1 (single isomer, unassigned) [Example 114, N-((cis)-3-(2-cyano-5-methylphenyl)cyclobutyl)-1-((S or R)-1-(4,5-dimethyl-6-((1R,5S)-2-oxo-3-azabicyclo[3.1.0]hexan-3-yl)pyridin-3-yl)ethyl)-1H-1,2,3-triazole-4-carboxamide] | 6.1
COc1nc(C(C)n2cc(C(=O)N[C@H]3C[C@@H](c4cc(Cl)ccc4C#N)C3)nn2)cnc1N1C[C@H]2C[C@H]2C1=O (single isomer, unassigned) [Example 121, N-((cis)-3-(5-chloro-2-cyanophenyl)cyclobutyl)-1-((R or S)-1-(6-methoxy-5-((1R,5S)-2-oxo-3-azabicyclo[3.1.0]hexan-3-yl)pyrazin-2-yl)ethyl)-1H-1,2,3-triazole-4-carboxamide] | 6.7
CC(c1cnc(N2C[C@H]3C[C@H]3C2=O)c(N)c1)n1cc(C(=O)N[C@H]2C[C@@H](c3cc(Cl)ccc3C#N)C2)nn1 (single isomer, unassigned) [Example 107, 1-((R or S)-1-(5-amino-6-((1R,5S)-2-oxo-3-azabicyclo[3.1.0]hexan-3-yl)pyridin-3-yl)ethyl)-N-((cis)-3-(5-chloro-2-cyanophenyl)cyclobutyl)-1H-1,2,3-triazole-4-carboxamide] | 4.8
Cc1c([C@H](C)n2cc(C(=O)NC3CC(c4cccc(Cl)c4)C3O)nn2)cnc(N2C[C@H]3C[C@H]3C2=O)c1C (single isomer, unassigned) [Example 152, N-((1S,2S,3S or 1R,2R,3R))-3-(3-chlorophenyl)-2-hydroxycyclobutyl)-1-((S)-1-(4,5-dimethyl-6-((1R,5S)-2-oxo-3-azabicyclo[3.1.0]hexan-3-yl)pyridin-3-yl)ethyl)-1H-1,2,3-triazole-4-carboxamide] | 78
Cc1ccc(C#N)c([C@H]2C[C@@H](NC(=O)c3cn(C(C)c4cnc(N5C[C@H]6C[C@H]6C5=O)c(C)n4)nn3)C2)n1 (single isomer, unassigned) [Example 115, N-((cis)-3-(3-cyano-6-methylpyridin-2-yl)cyclobutyl)-1-((R or S)-1-(6-methyl-5-((1R,5S)-2-oxo-3-azabicyclo[3.1.0]hexan-3-yl)pyrazin-2-yl)ethyl)-1H-1,2,3-triazole-4-carboxamide] | 22.4
Cc1ccc(C#N)c([C@H]2C[C@@H](NC(=O)c3cn(C(C)c4cnc(N5C[C@H]6C[C@H]6C5=O)c(C)n4)nn3)C2)n1 (single isomer, unassigned) [Example 116, N-((cis)-3-(3-cyano-6-methylpyridin-2-yl)cyclobutyl)-1-((S or R)-1-(6-methyl-5-((1R,5S)-2-oxo-3-azabicyclo[3.1.0]hexan-3-yl)pyrazin-2-yl)ethyl)-1H-1,2,3-triazole-4-carboxamide] | 6.9
Cc1c(C(C)n2cc(C(=O)NC3CC(c4cccc(Cl)c4)C3O)nn2)cnc(N2C[C@H]3C[C@H]3C2=O)c1F (single isomer, unassigned) [Example 124, N-((1S,2S,3S or 1R,2R,3R)-3-(3-chlorophenyl)-2-hydroxycyclobutyl)-1-((R or S)-1-(5-fluoro-4-methyl-6-((1R,5S)-2-oxo-3-azabicyclo[3.1.0]hexan-3-yl)pyridin-3-yl)ethyl)-1H-1,2,3-triazole-4-carboxamide] | 4.5

Stronger by IC50, values ahead:

IC50 [nM] | SMILES
1.1 | Cc1c(C(C)n2cc(C(=O)N[C@H]3C[C@@H](c4cc(Cl)ccc4C#N)C3)nn2)cnc(N2C[C@H]3C[C@H]3C2=O)c1C (single isomer, unassigned) [Example 86, N-((cis)-3-(5-chloro-2-cyanophenyl)cyclobutyl)-1-((R or S)-1-(4,5-dimethyl-6-((1R,5S)-2-oxo-3-azabicyclo[3.1.0]hexan-3-yl)pyridin-3-yl)ethyl)-1H-1,2,3-triazole-4-carboxamide]
1.7 | Cc1cc(N2C[C@H]3C[C@H]3C2=O)ncc1C1(n2cc(C(=O)N[C@H]3C[C@@H](c4cc(Cl)ccc4C#N)C3)cn2)CC1 [Example 159, N-((cis)-3-(5-chloro-2-cyanophenyl)cyclobutyl)-1-(1-(4-methyl-6-((1R,5S)-2-oxo-3-azabicyclo[3.1.0]hexan-3-yl)pyridin-3-yl)cyclopropyl)-1H-pyrazole-4-carboxamide]
0.7 | [2H]C1(NC(=O)c2cn([C@@H](C)c3cnc(N4C[C@H]5C[C@H]5C4=O)cc3C)nn2)CC(C)(c2cc(Cl)ccc2C#N)C1 (single isomer, unassigned) [Example 146, N-((trans or cis)-3-(5-chloro-2-cyanophenyl)-3-methylcyclobutyl-1-d)-1-((S)-1-(4-methyl-6-((1R,5S)-2-oxo-3-azabicyclo[3.1.0]hexan-3-yl)pyridin-3-yl)ethyl)-1H-1,2,3-triazole-4-carboxamide]
1 | Cc1cc(N2C[C@H]3C[C@H]3C2=O)ncc1[C@H](C)n1cc(C(=O)N[C@H]2C[C@@](C)(c3cc(Cl)ccc3C(N)=O)C2)nn1 [Example 144, N-((cis)-3-(2-carbamoyl-5-chlorophenyl)-3-methylcyclobutyl)-1-((S)-1-(4-methyl-6-((1R,5S)-2-oxo-3-azabicyclo[3.1.0]hexan-3-yl)pyridin-3-yl)ethyl)-1H-1,2,3-triazole-4-carboxamide]
1.1 | Cc1ccc(C#N)c([C@H]2C[C@@H](NC(=O)c3cnn(C(C)c4cnc(N5C[C@H]6C[C@H]6C5=O)cc4C)c3)C2)c1 (single isomer, unassigned) [Example 36, N-((cis)-3-(2-cyano-5-methylphenyl)cyclobutyl)-1-((R or S)-1-(4-methyl-6-((1R,5S)-2-oxo-3-azabicyclo[3.1.0]hexan-3-yl)pyridin-3-yl)ethyl)-1H-pyrazole-4-carboxamide]
2.3 | Cc1ccc(C#N)c([C@H]2C[C@@H](NC(=O)c3cn(C(C)c4nnc(N5C[C@H]6C[C@H]6C5=O)c(C)c4C)nn3)C2)n1 (single isomer, unassigned) [Example 128, N-((cis)-3-(3-cyano-6-methylpyridin-2-yl)cyclobutyl)-1-((S or R)-1-(4,5-dimethyl-6-((1R,5S)-2-oxo-3-azabicyclo[3.1.0]hexan-3-yl)pyridazin-3-yl)ethyl)-1H-1,2,3-triazole-4-carboxamide]
1.9 | Cc1nc(N2C[C@H]3C[C@H]3C2=O)ncc1C(C)n1cc(C(=O)N[C@H]2C[C@@H](c3cc(Cl)ccc3C#N)C2)nn1 (single isomer, unassigned) [Example 81, N-((cis)-3-(5-chloro-2-cyanophenyl)cyclobutyl)-1-((S or R)-1-(4-methyl-2-((1R,5S)-2-oxo-3-azabicyclo[3.1.0]hexan-3-yl)pyrimidin-5-yl)ethyl)-1H-1,2,3-triazole-4-carboxamide]
4.3 | CC(c1ncc(N2C[C@H]3C[C@H]3C2=O)cc1F)n1cc(C(=O)N[C@H]2C[C@@H](c3cc(Cl)ccc3C#N)C2)nn1 (single isomer, unassigned) [Example 93, N-((cis)-3-(5-chloro-2-cyanophenyl)cyclobutyl)-1-((S or R)-1-(3-fluoro-5-((1R,5S)-2-oxo-3-azabicyclo[3.1.0]hexan-3-yl)pyridin-2-yl)ethyl)-1H-1,2,3-triazole-4-carboxamide]
2.4 | Cc1ccc(C#N)c([C@H]2C[C@@H](NC(=O)c3cnn(C(C)c4cnc(N5C[C@H]6C[C@H]6C5=O)c(C)n4)c3)C2)n1 (single isomer, unassigned) [Example 51, N-((cis)-3-(3-cyano-6-methylpyridin-2-yl)cyclobutyl)-1-((R or S)-1-(6-methyl-5-((1R,5S)-2-oxo-3-azabicyclo[3.1.0]hexan-3-yl)pyrazin-2-yl)ethyl)-1H-pyrazole-4-carboxamide]
0.3 | Cc1cc(N2C[C@H]3C[C@H]3C2=O)ncc1C(C)n1cc(C(=O)N[C@H]2C[C@@](C)(c3cc(Cl)ccc3C#N)C2)cn1 (single isomer, unassigned) [Example 9, N-((cis)-3-(5-chloro-2-cyanophenyl)-3-methylcyclobutyl)-1-((R or S)-1-(4-methyl-6-((1R,5S)-2-oxo-3-azabicyclo[3.1.0]hexan-3-yl)pyridin-3-yl)ethyl)-1H-pyrazole-4-carboxamide]
0.3 | Cc1cc(N2C[C@H]3C[C@H]3C2=O)ncc1C(C)n1cc(C(=O)N[C@H]2C[C@@](C)(c3cc(Cl)ccc3C#N)C2)nn1 (single isomer, unassigned) [Example 65, N-((cis)-3-(5-chloro-2-cyanophenyl)-3-methylcyclobutyl)-1-((S or R)-1-(4-methyl-6-((1R,5S)-2-oxo-3-azabicyclo[3.1.0]hexan-3-yl)pyridin-3-yl)ethyl)-1H-1,2,3-triazole-4-carboxamide]
2.1 | Cc1cc(N2C[C@H]3C[C@H]3C2=O)ncc1C(C)n1cc(C(=O)N[C@H]2C[C@@H](c3cc(Cl)ccc3C#N)C2)c(C)n1 (single isomer, unassigned) [Example 20, N-((cis)-3-(5-chloro-2-cyanophenyl)cyclobutyl)-3-methyl-1-((S or R)-1-(4-methyl-6-((1R,5S)-2-oxo-3-azabicyclo[3.1.0]hexan-3-yl)pyridin-3-yl)ethyl)-1H-pyrazole-4-carboxamide]
